Patent publication US6887873B2, “Triazine derivatives and their application as antitelomerase agents” (Aventis Pharma S.A., priority 2001, dated 2005)
Like-named read-outs stand apart in the source and are kept apart here.

Experiments:
[1] = test system: human telomerease (HL60 cell extract); test: Antitelomerease activity: extension of oligonucleotide TS followed by PCR amplification, with HL60 extract; format: biochemical; details: read-out: TRAP IC50
Outline: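 HL60 CHAPS-lysate extract extends TS primer (15 min, 30 °C) with compound at 10, 1, 0.1 and 0.01 µM, followed by 30-cycle PCR with TS and CXext. Products resolved on 12% acrylamide and quantified; % inhibition versus enzyme control and blank, IC50 read from semilog plot.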

A549 cells = test: Cytotoxic activity on human tumour line A549, neutral red, 96 hours; format: cell-based; details: read-out: Cytotox. A549 IC50
Protocol: The cytotoxic biological activity on human tumour lines is determined according to the following experimental protocol:
The human cell lines A549 are obtained from ATCC (American Type Culture Collection, Rockville, USA). The A549 cells are cultured in a layer in a culture flask in RPMI 1640 medium containing L-glutamine at 2 mM, penicillin 200 U/ml, streptomycin 200 μg/ml and supplemented with 10% heat-inactivated foetal calf serum. The KB cells are cultured in a layer in a culture flask in Dulbelco's medium containing L-glutamine at 2 mM, penicillin 200 U/ml, streptomycin 200 μg/ml and supplemented with 10% heat-inactivated foetal calf serum.
The cells at the exponential growth phase are trypsinized, washed in 1×PBS and are inoculated in 96-well microplates (Costar) in an amount of 4×10^4 cells/ml for A549 and of 1.5×10^4 cells/ml (0.2 ml/well) and then incubated for 96 hours in the presence of variable concentrations of product to be studied (10, 1, 0.1 and 0.01 μM, each point in quadruplicate). 16 hours before the end of the incubation, 0.02% final of neutral red is added to each well. At the end of the incubation, the cells are washed with 1×PBS and lysed with 1% sodium lauryl sulphate. The cellular incorporation of the dye, which reflects cellular growth, is evaluated by spectro-photometry at a wavelength of 540 nm for each sample with the aid of a Dynatech MR5000 reading apparatus.
For each compound concentration tested, the results are expressed as percentage of inhibition of cellular growth and calculated from the untreated control and the culture medium free of cells (blank) according to the following formula: (compound value−blank value/cell control value−blank value)×100.
The concentration of compound inducing a 50% inhibition of growth (IC50) is determined with the aid of a semilogarithmic graphical representation of the inhibition values obtained as a function of each of the compound concentrations tested.
A compound is considered to be active as cytotoxic agent if the concentration inhibiting the growth of the tumour cells tested by 50% is in particular less than 10 μM.

Structure (SMILES) | IC50 [1] [nM] | IC50 (A549 cells; Homo sapiens, A549, A549) [nM] | IC50 (A549 cells; A549) [nM]
Cc1cc(N(C)C)c2cc(Nc3nc(NCCCN(C)C)nc(Nc4ccc5nc(C)cc(N(C)C)c5c4)n3)ccc2n1 [Example 1, 2,4-bis(4-dimethylamino-2-methylquinolin-6-yl)amino-6-(3-dimethylaminopropyl)amino-[1,3,5]triazine] | 550 | 230 | 
Cc1cc(N)c2cc(Nc3nc(Nc4ccc5nc(C)cc(N)c5c4)nc(Nc4ccc5nc(C)cc(N)c5c4)n3)ccc2n1 [Example 2, 2,4,6-tris(4-amino-2-methylquinolin-6-yl)amino-[1,3,5]triazine] | 60 | 10000 | 
Cc1cc(N)c2cc(Nc3nc(Nc4ccc5nc(C)cc(N(C)C)c5c4)nc(Nc4ccccc4Cl)n3)ccc2n1 [Example 3] | 2100 | 6000 | 
Cc1cc(N)c2cc(Nc3nc(Nc4ccc(N5CCNCC5)cc4)nc(Nc4ccc5nc(C)cc(N)c5c4)n3)ccc2n1 [Example 15] | 190 | 1850 | 
Cc1cc(N)c2cc(Nc3nc(Nc4ccc5nc(C)cc(N)c5c4)nc(NC4CN5CCC4CC5)n3)ccc2n1 (centres unmarked) [Example 17, 2,4-bis(4-amino-2-methylquinolin-6-yl)amino-6-(quinuclidin-3-yl)amino-[1,3,5]triazine] | 100 | 2730 | 
Cc1cc(N(C)C)c2cc(Nc3nc(Nc4ccncc4)nc(Nc4ccc5nc(C)cc(N(C)C)c5c4)n3)ccc2n1 [Example 18] | 1200 | 2860 | 
Cc1cc(N(C)C)c2cc(Nc3nc(Nc4ccc5nc(C)cc(N(C)C)c5c4)nc(C4CCN(C)CC4)n3)ccc2n1 [Example 19, 2,4-bis(4-dimethylamino-2-methylquinolin-6-yl)amino-6-(1-methylpiperidin-4-yl)-[1,3,5]triazine] | 530 | 300 | 
Cc1cc(N(C)C)c2cc(Nc3nc(Nc4ccc5nc(C)cc(N(C)C)c5c4)nc(N4CCN(C)CC4)n3)ccc2n1 [Example 20, 2,4-bis(4-dimethylamino-2-methylquinolin-6-yl)amino-6-(4-methylpiperazin-1-yl)-[1,3,5]triazine] | 440 | 350 | 
Cc1cc(N(C)C)c2cc(Nc3nc(NCc4ccncc4)nc(Nc4ccc5nc(C)cc(N(C)C)c5c4)n3)ccc2n1 [Example 27, 2,4-bis(4-dimethylamino-2-methylquinolin-6-yl)amino-6-(pyridin-4-yl)methylamino-[1,3,5]triazine] | 600 |  | 1000
CCN(CCNc1nc(Nc2ccc3nc(C)cc(N(C)C)c3c2)nc(Nc2ccc3nc(C)cc(N(C)C)c3c2)n1)c1cccc(C)c1 [Example 28] | 900 | 1500 | 
Cc1cc(N)c2cc(Nc3nc(Nc4ccc5nc(C)cc(N)c5c4)nc(NC4CCN(Cc5ccccc5)C4)n3)ccc2n1 (centres unmarked) [Example 41] | 360 | 9900 | 
Cc1cc(N)c2cc(Nc3nc(Nc4ccc5nc(C)cc(N)c5c4)nc(N4CCN(C5CCCC5)CC4)n3)ccc2n1 [Example 43] | 180 | 10000 | 
Cc1cc(N)c2cc(Nc3nc(NCc4ccc([N+](C)(C)C)cc4)nc(Nc4ccc5nc(C)cc(N)c5c4)n3)ccc2n1 [Example 60] | 3000 | 5700 | 
Cc1cc(N)c2cc(Nc3nc(Nc4ccc5nc(C)cc(N)c5c4)nc(N4CCN(C(=O)c5ccco5)CC4)n3)ccc2n1 [Example 68] | 300 | 11500 | 
Cc1cc(N)c2cc(Nc3nc(Nc4ccc5nc(C)cc(N)c5c4)nc(N4CCN(C5CCCCCCC5)CC4)n3)ccc2n1 [Example 77] | 480 | 5600 | 
Cc1cc(N)c2cc(Nc3nc(Nc4ccc5nc(C)cc(N)c5c4)nc(N4CCCC4c4cccnc4)n3)ccc2n1 (centres unmarked) [Example 86] | 200 | 18900 | 
Cc1cc(N)c2cc(Nc3nc(Nc4ccc5nc(C)cc(N)c5c4)nc(N(Cc4ccccc4)C4CN5CCC4CC5)n3)ccc2n1 (centres unmarked) [Example 92] | 430 | 7800 | 
Cc1cc(N)c2cc(Nc3nc(Nc4ccc5nc(C)cc(N)c5c4)nc(NC4CCN(Cc5ccccc5)CC4)n3)ccc2n1 [Example 93] | 370 | 9300 | 
Cc1cc(N)c2cc(Nc3nc(Nc4ccc5nc(C)cc(N)c5c4)nc(Oc4ccccc4Cl)n3)ccc2n1 [Example 103] | 280 | 11300 | 

Structure (SMILES) | IC50 [1] [nM] | IC50 (A549 cells; Homo sapiens, A549, A549) [nM] | IC50 (A549 cells; A549) [nM]
COc1cccc(Oc2nc(Nc3ccc4nc(C)cc(N)c4c3)nc(Nc3ccc4nc(C)cc(N)c4c3)n2)c1 [Example 104] | 1200 | 11400 | 
Cc1cc(N)c2cc(Nc3nc(Nc4ccc5nc(C)cc(N)c5c4)nc(OCCN(C)Cc4ccccc4)n3)ccc2n1 [Example 105] | 240 | 11600 | 
Cc1cc(N(C)C)c2cc(Nc3nc(Nc4ccc5nc(C)cc(N(C)C)c5c4)nc(Oc4ccncc4)n3)ccc2n1 [Example 115, 2,4-bis(4-dimethylamino-2-methylquinolin-6-yl)amino-6-(pyridin-4-yl)oxy-[1,3,5]triazine] | 500 | 1600 | 
Cc1cc(N)c2cc(Nc3nc(Nc4ccc5nc(C)cc(N)c5c4)nc(Sc4ccccc4Cl)n3)ccc2n1 [Example 118] | 1400 | 13700 | 
Cc1cc(N)c2cc(Nc3nc(Nc4ccc5nc(C)cc(N)c5c4)nc(Sc4ccccn4)n3)ccc2n1 [Example 120] | 380 | 17800 | 
COc1ccc(CSc2nc(Nc3ccc4nc(C)cc(N)c4c3)nc(Nc3ccc4nc(C)cc(N)c4c3)n2)cc1 [Example 124] | 900 | 6200 | 
Cc1cc(N)c2cc(Nc3nc(Nc4ccc5nc(C)cc(N)c5c4)nc(Sc4ncccn4)n3)ccc2n1 [Example 126] | 670 | 11400 | 
Cc1cc(C)nc(Sc2nc(Nc3ccc4nc(C)cc(N)c4c3)nc(Nc3ccc4nc(C)cc(N)c4c3)n2)n1 [Example 127] | 840 | 15900 | 
Cc1cc(N)c2cc(Nc3nc(Nc4ccc5nc(C)cc(N)c5c4)nc(Sc4ccc5ccccc5n4)n3)ccc2n1 [Example 128, 2,4-bis(4-amino-2-methylquinolin-6-yl)amino-6-(quinolin-2-yl)thio-[1,3,5]triazine] | 390 | 2860 | 
Cc1cc(N(C)C)c2cc(Nc3nc(Nc4ccc5nc(C)cc(N(C)C)c5c4)nc(N4CCCN(C)CC4)n3)ccc2n1 [Example 135, 2,4-bis(4-dimethylamino-2-methylquinolin-6-yl)amino-6-(1-methylhomopiperazin-4-yl)-[1,3,5]triazine] | 400 | 70 | 
Cc1cc(N(C)C)c2cc(Nc3nc(Nc4ccc5nc(C)cc(N(C)C)c5c4)nc(N4CCN(CCCN(C)C)CC4)n3)ccc2n1 [Example 136, 2,4-bis(4-dimethylamino-2-methylquinolin-6-yl)amino-6-[1-(3-dimethylaminopropyl)piperazin-4-yl]-[1,3,5]triazine] | 120 | 26 | 
CCCN(CCC)CCN1CCN(c2nc(Nc3ccc4nc(C)cc(N(C)C)c4c3)nc(Nc3ccc4nc(C)cc(N(C)C)c4c3)n2)CC1 [Example 137, 2,4-bis(4-dimethylamino-2-methylquinolin-6-yl)amino-6-[1-(2-dipropylaminoethyl)piperazin-4-yl]-[1,3,5]triazine] | 1000 | 150 | 
Cc1cc(N(C)C)c2cc(Nc3nc(Nc4ccc5nc(C)cc(N(C)C)c5c4)nc(N(C)C4CCN(C)CC4)n3)ccc2n1 [Example 138, 2,4-bis(4-dimethylamino-2-methylquinolin-6-yl)amino-6-[N-(1-methylpiperidin-4-yl)-N-methylamino]-[1,3,5]triazine] | 500 | 61 | 
Cc1cc(N(C)C)c2cc(Nc3nc(Nc4ccc5nc(C)cc(N(C)C)c5c4)nc(N4CCCN(CCCN5CCCC5)CC4)n3)ccc2n1 [Example 139] | 600 | 45 | 
Cc1cc(N(C)C)c2cc(Nc3nc(NCCN4CCN(Cc5ccccc5)CC4)nc(Nc4ccc5nc(C)cc(N(C)C)c5c4)n3)ccc2n1 [Example 140] | 1000 | 512 | 
Cc1cc(N(C)C)c2cc(Nc3nc(Nc4ccc5nc(C)cc(N(C)C)c5c4)nc(N4CCN(CCOCCO)CC4)n3)ccc2n1 [Example 141, 2,4-bis(4-dimethylamino-2-methylquinolin-6-yl)amino-6-{[1-2-(2-hydroxyethyl)oxyethyl]piperazin-4-yl}-[1,3,5]triazine] | 900 | 96 | 
Cc1cc(N(C)C)c2cc(Nc3nc(NCC[N+](C)(C)C)nc(Nc4ccc5nc(C)cc(N(C)C)c5c4)n3)ccc2n1 [Example 142] | 1000 | 1560 | 
Cc1cc(N(C)C)c2cc(Nc3nc(Nc4ccc5nc(C)cc(N(C)C)c5c4)nc(N4CCN(C5CCCC5)CC4)n3)ccc2n1 [Example 143] | 400 | 520 | 
